Laboratory results: US12110279B2, “Triazolones, tetrazolones, and imidazolones, or their salts, and pharmaceutical compositions comprising the same” (Yuhan Corporation, priority 2021, dated 2024)
Structures can show the parent of a compound that is named as a salt. Where two headings read alike, the source gives them in different places.

Key:
Type in all cases: biochemical
recombinant human VAP-1 = target: T1, recombinant human VAP-1 (Homo sapiens, UniProt Q16853); test: Amplex Red HRP-coupled amine oxidase activity evaluation, recombinant human VAP-1; details: substrate 1 mM benzylamine; 30 min preincubation at 37° C.; read-out: Inhibitory Activity (IC50, nM) human VAP-1
T1 construct: purchased R&D systems
T1 sequence (Q16853 1-763): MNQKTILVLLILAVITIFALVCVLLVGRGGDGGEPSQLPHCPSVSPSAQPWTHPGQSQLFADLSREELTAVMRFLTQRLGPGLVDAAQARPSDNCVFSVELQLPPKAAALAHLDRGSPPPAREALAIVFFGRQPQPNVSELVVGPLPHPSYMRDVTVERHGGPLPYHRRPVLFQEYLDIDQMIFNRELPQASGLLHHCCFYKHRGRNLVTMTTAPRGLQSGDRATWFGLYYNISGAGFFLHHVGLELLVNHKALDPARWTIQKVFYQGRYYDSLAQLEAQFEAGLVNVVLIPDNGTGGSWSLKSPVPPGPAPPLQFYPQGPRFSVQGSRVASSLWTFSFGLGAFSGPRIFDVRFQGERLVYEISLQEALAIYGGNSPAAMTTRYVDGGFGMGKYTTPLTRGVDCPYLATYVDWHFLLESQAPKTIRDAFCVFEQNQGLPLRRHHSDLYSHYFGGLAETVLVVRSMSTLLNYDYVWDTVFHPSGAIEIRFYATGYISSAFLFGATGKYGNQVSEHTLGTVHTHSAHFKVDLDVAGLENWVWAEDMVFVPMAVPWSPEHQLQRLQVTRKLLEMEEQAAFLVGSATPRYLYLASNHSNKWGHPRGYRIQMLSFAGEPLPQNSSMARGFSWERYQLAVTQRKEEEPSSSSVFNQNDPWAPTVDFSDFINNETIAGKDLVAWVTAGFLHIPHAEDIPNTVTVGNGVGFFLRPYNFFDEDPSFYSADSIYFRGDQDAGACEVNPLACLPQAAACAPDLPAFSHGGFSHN
In short: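 Steps: 8-point 1:3 compound dilutions (final DMSO <1%); 30 min at 37° C with human VAP-1 in 50 mM NaPi pH 7.4; addition of a mix holding 200 uM Amplex Red, 1 mM benzylamine and 1 U/mL HRP; kinetic fluorescence over 1-2 h. Four-parameter logistic IC50.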

[1] = target: T2, recombinant human MAO-A (monoamine oxidase-A) (Homo sapiens, UniProt P21397); test: Amplex Red HRP-coupled amine oxidase activity evaluation, recombinant human MAO-A; details: substrate 0.5 mM tyramine; read-out: Inhibitory Activity (IC50, nM) MAO-A
T2 construct: purchased Sigma-Aldrich
T2 sequence (P21397 1-527): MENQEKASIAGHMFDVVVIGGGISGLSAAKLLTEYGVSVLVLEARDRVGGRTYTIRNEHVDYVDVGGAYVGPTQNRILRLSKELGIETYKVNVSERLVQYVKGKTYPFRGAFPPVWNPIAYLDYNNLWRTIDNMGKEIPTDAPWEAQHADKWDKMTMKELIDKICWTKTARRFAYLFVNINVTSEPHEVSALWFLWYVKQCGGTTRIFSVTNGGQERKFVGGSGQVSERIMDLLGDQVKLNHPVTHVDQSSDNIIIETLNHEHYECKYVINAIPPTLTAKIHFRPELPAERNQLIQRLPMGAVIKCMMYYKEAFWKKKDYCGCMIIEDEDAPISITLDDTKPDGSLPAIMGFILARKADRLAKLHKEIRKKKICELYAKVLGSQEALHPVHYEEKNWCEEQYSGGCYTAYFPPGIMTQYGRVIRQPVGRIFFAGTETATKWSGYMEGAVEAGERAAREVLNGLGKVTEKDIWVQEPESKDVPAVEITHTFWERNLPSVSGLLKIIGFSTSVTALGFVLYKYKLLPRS

[2] = target: T3, recombinant human MAO-B (monoamine oxidase-B) (Homo sapiens, UniProt P27338); test: Amplex Red HRP-coupled amine oxidase activity evaluation, recombinant human MAO-B; details: substrate 1 mM benzylamine; read-out: Inhibitory Activity (IC50, nM) MAO-B
T3 construct: purchased Sigma-Aldrich
T3 sequence (P27338 1-520): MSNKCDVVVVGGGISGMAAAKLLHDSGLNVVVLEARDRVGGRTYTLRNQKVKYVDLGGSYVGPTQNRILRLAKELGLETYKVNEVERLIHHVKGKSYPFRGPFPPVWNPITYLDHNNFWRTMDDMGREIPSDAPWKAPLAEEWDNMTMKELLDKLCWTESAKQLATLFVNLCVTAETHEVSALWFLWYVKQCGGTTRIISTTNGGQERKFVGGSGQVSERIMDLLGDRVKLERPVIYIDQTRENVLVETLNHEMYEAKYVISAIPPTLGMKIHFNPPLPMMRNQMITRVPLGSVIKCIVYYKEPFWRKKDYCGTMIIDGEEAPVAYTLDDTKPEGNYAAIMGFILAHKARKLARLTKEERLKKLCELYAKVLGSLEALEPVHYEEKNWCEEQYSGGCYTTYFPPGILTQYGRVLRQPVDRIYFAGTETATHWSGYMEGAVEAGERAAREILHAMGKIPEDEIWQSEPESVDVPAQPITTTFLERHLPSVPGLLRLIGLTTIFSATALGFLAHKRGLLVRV

[3] = target: T4, recombinant human DAO (diamine oxidase) (Homo sapiens, UniProt P19801); test: Amplex Red HRP-coupled amine oxidase activity evaluation, recombinant human DAO
T4 construct: purchased R&D systems
T4 sequence (P19801 20-751): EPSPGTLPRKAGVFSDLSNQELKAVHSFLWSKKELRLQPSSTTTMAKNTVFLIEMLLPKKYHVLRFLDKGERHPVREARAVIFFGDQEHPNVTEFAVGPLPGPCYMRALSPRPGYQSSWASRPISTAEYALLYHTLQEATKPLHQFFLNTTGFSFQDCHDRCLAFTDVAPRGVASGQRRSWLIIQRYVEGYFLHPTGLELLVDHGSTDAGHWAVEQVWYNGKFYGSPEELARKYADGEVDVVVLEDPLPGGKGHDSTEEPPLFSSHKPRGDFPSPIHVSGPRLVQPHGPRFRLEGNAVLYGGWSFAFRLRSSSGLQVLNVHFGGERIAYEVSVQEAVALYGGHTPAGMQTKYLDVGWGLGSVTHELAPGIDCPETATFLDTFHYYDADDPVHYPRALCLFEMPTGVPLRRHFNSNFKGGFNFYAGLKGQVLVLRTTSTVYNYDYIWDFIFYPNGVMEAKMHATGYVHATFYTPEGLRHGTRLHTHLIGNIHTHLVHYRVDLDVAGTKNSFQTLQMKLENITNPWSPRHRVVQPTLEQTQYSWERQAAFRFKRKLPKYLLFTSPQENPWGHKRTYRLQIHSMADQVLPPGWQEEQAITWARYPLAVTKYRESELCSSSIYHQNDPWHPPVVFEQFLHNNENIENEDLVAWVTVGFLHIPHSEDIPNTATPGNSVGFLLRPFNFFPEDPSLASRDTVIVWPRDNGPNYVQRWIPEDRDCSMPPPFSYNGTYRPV

[4] = substrate 1 mM putrescine, read-out: Inhibitory Activity (IC50, nM) DAO

Row | SMILES | IC50 (recombinant human VAP-1) [nM] | IC50 [1] [nM] | IC50 [2] [nM] | IC50 [3, 4] [nM] | IC50 [3] [nM]
1 | CCn1cc(-c2cccc(Cn3nnn(CC(CN)=C(F)F)c3=O)c2)ccc1=O [Example 34, 5-[3-[[4-[2-(aminomethyl)-3,3-difluoro-allyl]-5-oxo-tetrazol-1-yl]methyl]phenyl]-1-ethyl-pyridin-2-one trifluoroacetate] | 0.6 | > 100000 | 53900 | 12500 | –
2 | NCC(Cn1nnn(-c2cc(-c3ccc(N4CCNCC4)cc3)cs2)c1=O)=C(F)F [Example 36, 1-[2-(aminomethyl)-3,3-difluoro-allyl]-4-[4-(4-piperazin-1-ylphenyl)-2-thienyl]tetrazol-5-one di-trifluoroacetate] | 1.1 | > 100000 | > 100000 | 8470 | –
3 | CN(C)c1ccc(-c2csc(-n3nnn(CC(CN)=C(F)F)c3=O)c2)cn1 [Example 38, 1-[2-(aminomethyl)-3,3-difluoro-allyl]-4-[4-[6-(dimethylamino)-3-pyridyl]-2-thienyl]tetrazol-5-one trifluoroacetate] | 0.8 | > 100000 | 768 | > 100000 | –
4 | NCC(Cn1nnn(-c2cc(-c3ccc4c(c3)OCO4)cs2)c1=O)=C(F)F [Example 39, 1-[2-(aminomethyl)-3,3-difluoro-allyl]-4-[4-(1,3-benzodioxol-5-yl)-2-thienyl]tetrazol-5-one trifluoroacetate] | 0.6 | 26200 | 21 | 88 | –
5 | CS(=O)(=O)c1ccc(-c2ccc(Cn3nnn(CC(CN)=C(F)F)c3=O)s2)cc1 [Example 43, 1-[2-(aminomethyl)-3,3-difluoro-allyl]-4-[[5-(4-methylsulfonylphenyl)-2-thienyl]methyl]tetrazol-5-one trifluoroacetate] | 0.4 | 72800 | 19700 | 911 | –
6 | Cc1cc(-c2ccc(Cn3nnn(CC(CN)=C(F)F)c3=O)s2)cc2c1NC(=O)CC2 [Example 45, 6-[5-[[4-[2-(aminomethyl)-3,3-difluoro-allyl]-5-oxo-tetrazol-1-yl]methyl]-2-thienyl]-8-methyl-3,4-dihydro-1H-quinolin-2-one trifluoroacetate] | 0.6 | 49200 | 7210 | 1870 | –
7 | CN1C(=O)CCc2cc(-c3ccc(Cn4nnn(CC(CN)=C(F)F)c4=O)s3)ccc21 [Example 46, 6-[5-[[4-[2-(aminomethyl)-3,3-difluoro-allyl]-5-oxo-tetrazol-1-yl]methyl]-2-thienyl]-1-methyl-3,4-dihydroquinolin-2-one trifluoroacetate] | 0.5 | 63100 | 6830 | 1050 | –
8 | CCn1cc(-c2ccc(Cn3nnn(CC(CN)=C(F)F)c3=O)s2)cn1 [Example 47, 1-[2-(aminomethyl)-3,3-difluoro-allyl]-4-[[5-(1-ethylpyrazol-4-yl)-2-thienyl]methyl]tetrazol-5-one trifluoroacetate] | 0.5 | > 100000 | 15100 | 8170 | –
9 | NCC(Cn1nnn(-c2cncc(-c3ccc4c(c3)OCO4)c2)c1=O)=C(F)F [Example 48, 1-[2-(aminomethyl)-3,3-difluoro-allyl]-4-[5-(1,3-benzodioxol-5-yl)-3-pyridyl]tetrazol-5-one trifluoroacetate] | 2.9 | 36900 | 4400 | – | 56

Continued, values first:

Row | IC50 (recombinant human VAP-1) [nM] | IC50 [1] [nM] | IC50 [2] [nM] | IC50 [3, 4] [nM] | IC50 [3] [nM] | SMILES
10 | 0.4 | > 100000 | 1430 | 32200 | – | CS(=O)(=O)c1ccc(-c2csc(-n3nnn(CC(CN)=C(F)F)c3=O)c2)cc1 [Example 35, 1-[2-(aminomethyl)-3,3-difluoro-allyl]-4-[4-(4-methylsulfonylphenyl)-2-thienyl]tetrazol-5-one trifluoroacetate]
11 | 0.3 | > 100000 | 3450 | 25300 | – | CCn1cc(-c2csc(-n3nnn(CC(CN)=C(F)F)c3=O)c2)ccc1=O [Example 37, 5-[5-[4-[2-(aminomethyl)-3,3-difluoro-allyl]-5-oxo-tetrazol-1-yl]-3-thienyl]-1-ethyl-pyridin-2-one trifluoroacetate]
12 | 0.4 | 56100 | 123 | 1.6 | – | Cc1cc(-c2csc(-n3nnn(CC(CN)=C(F)F)c3=O)c2)cc2c1NC(=O)CC2 [Example 40, 6-[5-[4-[2-(aminomethyl)-3,3-difluoro-allyl]-5-oxo-tetrazol-1-yl]-3-thienyl]-8-methyl-3,4-dihydro-1H-quinolin-2-one trifluoroacetate]
13 | 0.4 | > 100000 | 34 | 52 | – | CN1C(=O)CCc2cc(-c3csc(-n4nnn(CC(CN)=C(F)F)c4=O)c3)ccc21 [Example 41, 6-[5-[4-[2-(aminomethyl)-3,3-difluoro-allyl]-5-oxo-tetrazol-1-yl]-3-thienyl]-1-methyl-3,4-dihydroquinolin-2-one trifluoroacetate]
14 | 0.4 | > 100000 | 228 | 0.6 | – | CCn1cc(-c2csc(-n3nnn(CC(CN)=C(F)F)c3=O)c2)cn1 [Example 42, 1-[2-(aminomethyl)-3,3-difluoro-allyl]-4-[4-(1-ethylpyrazol-4-yl)-2-thienyl]tetrazol-5-one trifluoroacetate]
15 | 0.3 | > 100000 | 10000 | 762 | – | CCn1cc(-c2ccc(Cn3nnn(CC(CN)=C(F)F)c3=O)s2)ccc1=O [Example 44, 5-[5-[[4-[2-(aminomethyl)-3,3-difluoro-allyl]-5-oxo-tetrazol-1-yl]methyl]-2-thienyl]-1-ethyl-pyridin-2-one trifluoroacatate]
